Source: patent EP4745153A1, “GLP-1, GIP AND GCG RECEPTOR […] USE THEREOF” (Jiangsu Hengrui Pharmaceuticals Co., Ltd., priority 2023, dated 2025)
Where two headings read alike, the source gives them in different places. Starred links: 1 amine or outer side, 2 acyl side, 3 side chain; linkers in the order of their positions; H or OH if unused. Non-standard residues stand in square brackets, D forms with d. Residues, ends and D or L forms follow the SMILES beside them. Groups on a side chain read outwards from the residue. No end group written: not given here. *: point of attachment. C20 diacid = O=C(O)CCCCCCCCCCCCCCCCCCC(=O)*; γGlu = O=C(O)[C@H](CCC(=O)[*:2])N[*:1]; αMeL = CC(C)C[C@](C)(N)C(=O)O; Iva = CC[C@](C)(N)C(=O)O; AEEA = NCCOCCOCC(=O)O; Aib = CC(C)(N)C(=O)O

Key:
[1] = In vivo efficacy in diet-induced obesity (DIO) rat model; details: DIO rats; for 24h food intake compared with the model group / cumulative food intake compared with the model group: after dose adjustment; for cumulative food intake: entire administration period (before and after dose adjustment)
Description: In this experiment, a DIO rat model established on a 45% high-fat diet (HFD) was used to evaluate the effects of compounds on obesity-related indicators in DIO rats.
After one week of acclimatization, all rats were randomly divided into two groups: a normal group and a model group. The rats in the model group were then fed 45% HFD (Medison: MD12032), while the rats in the normal group were fed normal food. The body weight of the rats was measured weekly to monitor the modeling process.
DIO rats fed a high-fat diet for 37 weeks were weighed, and 75 DIO rats (approximately 1100g) and 8 rats (approximately 800g) on a normal diet (Chow diet) were selected and separated into individual cages. Each cage was fed approximately 100g of food at a time, and the food was changed every 48 hours. A preliminary sham dose experiment was then conducted. Subcutaneous acupuncture was performed on the neck once daily at 4 pm for 9 consecutive days. Body weight was measured before each acupuncture session and the effect of sham dose on body weight was observed. A curve of body weight changes over time was plotted. The formal dosing experiment was initiated after the body weight had stabilized.
Six Chow diet rats (weighing approximately 800g) and 30 HFD rats (weighing approximately 1100g) were selected through a preliminary sham dose experiment for subsequent dosing experiments. […] During the experiment, all rats were housed in single cages. The compound was dissolved in PBS solution at pH 7.4. On the day of grouping (Day 1), rats in each group were given the drug by subcutaneous injection in the neck according to their body weight, once daily (QD), as detailed in Table 9. […] The body weight was measured once daily at 15:00 or before administration, and a curve of body weight changes over time was plotted. Food intake: 1-7 days, measured once daily at 15:00 or before administration; 8-40 days, measured once every three days at 15:00 or before administration. A curve of changes in daily/cumulative food intake over time was plotted. Table 9. Dosing information for experimental groups

human GIPR = target: T1, human GIPR (Homo sapiens, UniProt P48546); test: cAMP HTRF agonist activity assay in CHO-K1 cells expressing GIPR; assay type: cell-based; for Activity against human GIPR (EC50 nM): 5% FBS, 0.1% Casein
T1 construct: expressed in transfected cells; host or cells: CHO-K1 clonal cell line
T1 sequence (P48546 22-466): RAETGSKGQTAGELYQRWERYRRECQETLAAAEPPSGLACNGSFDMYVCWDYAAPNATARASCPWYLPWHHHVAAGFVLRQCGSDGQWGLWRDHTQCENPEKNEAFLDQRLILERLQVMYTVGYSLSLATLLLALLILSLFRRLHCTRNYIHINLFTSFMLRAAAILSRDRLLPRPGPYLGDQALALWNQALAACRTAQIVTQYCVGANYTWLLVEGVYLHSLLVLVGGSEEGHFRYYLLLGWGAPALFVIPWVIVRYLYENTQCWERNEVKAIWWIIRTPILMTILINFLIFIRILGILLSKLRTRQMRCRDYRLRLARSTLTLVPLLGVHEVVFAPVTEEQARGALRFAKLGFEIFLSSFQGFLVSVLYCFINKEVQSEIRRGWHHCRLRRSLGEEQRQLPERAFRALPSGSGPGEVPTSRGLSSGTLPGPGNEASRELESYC
In short: (§1)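 cAMP accumulation measured by competitive HTRF after 30 min incubation of polypeptides with 5000 receptor-expressing CHO-K1 cells/well at 37°C. Percent of maximal response versus concentration fitted to a four-parameter logistic to give relative EC50.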

[2] = In vivo efficacy in diet-induced obesity (DIO) mouse model; design: species or system C57BL/6J mice; details: 10 nmol/kg subcutaneous once daily for 24 days; for body weight reduction at the experimental endpoint: DIO mice
Description: In this example, a DIO mouse model established by high-fat diet induction was used to evaluate the effects on and improvement of obesity and diabetes-related indicators in DIO mice after subcutaneous injection of some of the compounds in the present disclosure.
4.1 Experimental methods: Obese male C57BL/6J mice (23-24 weeks old, obtained from Beijing Vital River Laboratory Animal Technology Co., Ltd.) induced by a high-fat diet were purchased. Six-week-old male C57BL/6J mice were fed a 60% high-fat diet (RD D12492) until their body weight reached 45-50g to obtain DIO model mice. After arriving at the facility and undergoing a week of acclimatization feeding, the animals were randomly divided into groups according to their body weight and administered vehicle (model group), LY3437943, Compound 15, Compound 16, Compound 17 and Compound 18 via subcutaneous injection in the neck. The compound was administered at a dose of 10 nmol/kg, and the frequency of administration was once daily via subcutaneous injection for 24 days. Each group contained 5 DIO mice. According to the experimental design, the body weight of each mouse was weighed and recorded daily at 3 pm or before administration, the average body weight of each group of mice was calculated, and a curve of body weight change over time was plotted. After the experiment, the fat and other organs of the mice were removed from various parts of the body, weighed, and recorded.

[3] = Pharmacokinetics in mice after single intravenous injection; design: species or system C57 mice; details: mouse, in vivo, male C57 mice, single intravenous dose 200 nmol/kg, plasma
In short: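 Plasma concentrations were measured by positive-mode ESI LC-MS/MRM, with verapamil as internal standard, at time points from 5 min to 72 h. Samples came from three male C57 mice per compound, aged 4-6 weeks, dosed once intravenously with 200 nmol/kg in 1×PBS; PK parameters were derived with PKSolver.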

human GLP-1R = target: T2, human GLP-1R (Homo sapiens, UniProt P43220); test: cAMP HTRF agonist activity assay in CHO-K1 cells expressing GLP-1R; assay type: cell-based; details: read-out: Activity against human GLP-1R (EC50 nM); note: 5% FBS, 0.1% Casein
T2 construct: expressed in transfected cells; host or cells: CHO-K1 clonal cell line
T2 sequence (P43220 24-463): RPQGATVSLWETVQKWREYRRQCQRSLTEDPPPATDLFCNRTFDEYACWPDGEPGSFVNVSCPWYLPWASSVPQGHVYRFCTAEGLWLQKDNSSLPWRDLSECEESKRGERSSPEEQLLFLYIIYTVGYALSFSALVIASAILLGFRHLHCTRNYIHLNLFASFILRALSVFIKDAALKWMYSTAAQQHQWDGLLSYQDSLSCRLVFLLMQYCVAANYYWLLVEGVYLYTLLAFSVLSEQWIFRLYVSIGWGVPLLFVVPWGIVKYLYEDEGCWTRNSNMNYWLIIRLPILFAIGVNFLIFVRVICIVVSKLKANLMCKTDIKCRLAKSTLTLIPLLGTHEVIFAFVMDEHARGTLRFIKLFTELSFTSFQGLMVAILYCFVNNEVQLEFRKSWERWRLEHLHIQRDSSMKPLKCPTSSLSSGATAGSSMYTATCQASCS
In short: as §1

human GCGR = target: T3, human GCGR (Homo sapiens, UniProt P47871); test: cAMP HTRF agonist activity assay in CHO-K1 cells expressing GCGR; assay type: cell-based; details: read-out: Activity against human GCGR (EC50 nM); note: 5% FBS, 0.1% Casein
T3 construct: expressed in transfected cells; host or cells: CHO-K1 clonal cell line
T3 sequence (P47871 26-477): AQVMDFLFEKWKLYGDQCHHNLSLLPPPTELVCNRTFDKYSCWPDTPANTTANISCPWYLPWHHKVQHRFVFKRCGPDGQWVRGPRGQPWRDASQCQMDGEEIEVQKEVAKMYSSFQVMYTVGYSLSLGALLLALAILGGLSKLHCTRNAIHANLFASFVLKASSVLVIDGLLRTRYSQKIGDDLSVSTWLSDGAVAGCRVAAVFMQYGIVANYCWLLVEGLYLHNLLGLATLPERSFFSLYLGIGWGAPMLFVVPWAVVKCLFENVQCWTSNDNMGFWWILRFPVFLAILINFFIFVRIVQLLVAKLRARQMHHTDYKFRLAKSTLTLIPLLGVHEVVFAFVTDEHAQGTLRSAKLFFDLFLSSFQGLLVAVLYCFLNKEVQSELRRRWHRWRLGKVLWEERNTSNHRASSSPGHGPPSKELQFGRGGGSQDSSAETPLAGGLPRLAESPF
Description: Functional activity was determined in CHO-K1 clonal cell lines expressing GIPR, GLP-1R, and GCGR. […] Each recipient cell (5000 cells/well) was added to an SV 96-well plate (Cisbio, 66PL96025) and incubated with the prepared polypeptide at 37°Cfor 30 min. The resulting increase in intracellular cAMP was quantitatively measured using the cAMP-GS dynamic HTRF assay kit (Cisbio, 62AM4PEJ). Briefly, the intracellular cAMP levels were determined by adding cAMP-d2 conjugate in cell lysis buffer, followed by the antibody anti-cAMP-Eu cryptate (also in cell lysis buffer).
Using the maximum response percentage vs. the added polypeptide concentration, the relative EC50 values were derived through nonlinear regression analysis and fitted to a four-parameter logarithmic equation. For specific data, refer to Tables 7-1 to 7-8 below. […]

[4] = target: T4, human glucose-dependent insulinotropic polypeptide receptor (human, UniProt P48546 22-466); test: cell-based or functional assay
T4 sequence (looked up): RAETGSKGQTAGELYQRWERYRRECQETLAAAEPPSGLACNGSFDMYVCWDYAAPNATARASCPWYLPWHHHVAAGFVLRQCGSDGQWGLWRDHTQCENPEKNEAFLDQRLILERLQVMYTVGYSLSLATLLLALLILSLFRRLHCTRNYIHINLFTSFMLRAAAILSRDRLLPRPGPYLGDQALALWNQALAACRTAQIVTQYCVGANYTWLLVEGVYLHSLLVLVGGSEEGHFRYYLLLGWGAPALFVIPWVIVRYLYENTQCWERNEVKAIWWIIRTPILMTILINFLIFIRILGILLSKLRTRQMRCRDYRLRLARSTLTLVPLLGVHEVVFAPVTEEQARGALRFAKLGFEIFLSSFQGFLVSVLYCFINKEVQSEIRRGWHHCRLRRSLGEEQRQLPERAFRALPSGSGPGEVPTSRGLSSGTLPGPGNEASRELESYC

[5] = target: human glucagon-like peptide-1 receptor (human, UniProt P43220 24-463); test: cell-based or functional assay
human glucagon receptor = human glucagon receptor (human, UniProt P47871 26-477); test: cell-based or functional assay
Chain of human glucagon receptor (P47871 26-477): as the sequence (P47871 26-477) above

## CC[C@H](C)[C@H](NC(=O)[C@H](CO)NC(=O)[C@H](Cc1ccc(O)cc1)NC(=O)[C@H](CC(=O)O)NC(=O)[C@H](CO)NC(=O)[C@@H](NC(=O)[C@H](Cc1ccccc1)NC(=O)[C@@H](NC(=O)CNC(=O)[C@H](Cc1c[nH]cn1)NC(=O)C(C)(C)NC(=O)[C@@H](N)Cc1c[nH]cn1)[C@@H](C)O)[C@@H](C)O)C(=O)N[C@@H](CC(C)C)C(=O)N[C@@H](CC(C)C)C(=O)N[C@@H](CCC(=O)O)C(=O)N[C@@H](CCCCNC(=O)COCCOCCNC(=O)COCCOCCNC(=O)CC[C@H](NC(=O)CCCCCCCCCCCCCCCCCCC(=O)O)C(=O)O)C(=O)N[C@@H](CCCCN)C(=O)N[C@@H](C)C(=O)N[C@@H](C)C(=O)N[C@@H](CCC(N)=O)C(=O)N[C@@H](CCC(=O)O)C(=O)N[C@@H](Cc1ccccc1)C(=O)N[C@H](C(=O)N[C@@H](CCC(=O)O)C(=O)N[C@@H](Cc1c[nH]c2ccccc12)C(=O)N[C@@H](CC(C)C)C(=O)N[C@@H](CC(C)C)C(=O)N[C@@H](C)C(=O)NCC(=O)NCC(=O)N1CCC[C@H]1C(=O)N[C@@H](CO)C(=O)N[C@@H](CO)C(=O)NCC(=O)N[C@@H](C)C(=O)N1CCC[C@H]1C(=O)N1CCC[C@H]1C(=O)N1CCC[C@H]1C(=O)N[C@@H](CO)C(N)=O)C(C)C [Compound 0120] (H-H[Aib]HGTFTSDYSILLEK([AEEA-AEEA-γGlu-C20 diacid])KAAQEFVEWLLAGGPSSGAPPPS-NH2)
[1]; 3 nmol/kg subcutaneous QD
  24h food intake compared with the model group: significantly reduced
  cumulative food intake compared with the model group: significantly reduced
[1]; 0.3 then 3 nmol/kg subcutaneous QD
  cumulative food intake: 258.8 ± 23.5 g
[1]; subcutaneous QD, 0.3 nmol/kg adjusted to 3 nmol/kg from day 15
  body weight loss at the end of the experiment: 30.2%
[1]; subcutaneous QD, 1 nmol/kg, before adjusting the administration dose
  body weight compared with the model group: decreasing trend
Human GIPR
  EC50: 0.002 nM
[2]
  body weight of DIO mice compared with the test group given the vehicle: significant reduction in body weight
  body weight reduction at the experimental endpoint: 36.6%
[2]; indicating good safety
  final body weight relative to body weight of mice on a normal diet (Chow): ≥ 80%
[3]
  AUC(0-inf): 94.1 µM·h
  C0: 9.93 µM
[3]; read-out: CLp
  clearance: 2.04 mL/h/kg
[3]; read-out: T1/2 (converted)
  half-life: 14.7 h

## CC[C@H](C)[C@H](NC(=O)[C@H](Cc1ccccc1)NC(=O)[C@H](C)NC(=O)C(C)(C)NC(=O)[C@H](CCC(N)=O)NC(=O)[C@H](C)NC(=O)[C@H](CCCCNC(=O)COCCOCCNC(=O)CC[C@H](NC(=O)CCCCCCCCCCCCCCCCCCC(=O)O)C(=O)O)NC(=O)[C@H](CCCCN)NC(=O)[C@H](CC(=O)O)NC(=O)[C@H](CC(C)C)NC(=O)[C@](C)(CC(C)C)NC(=O)[C@@H](NC(=O)[C@H](CO)NC(=O)[C@H](Cc1ccc(O)cc1)NC(=O)[C@H](CC(=O)O)NC(=O)[C@H](CO)NC(=O)[C@@H](NC(=O)[C@H](Cc1ccccc1)NC(=O)[C@@H](NC(=O)CNC(=O)[C@H](CCC(N)=O)NC(=O)C(C)(C)NC(=O)[C@@H](N)Cc1ccc(O)cc1)[C@@H](C)O)[C@@H](C)O)[C@@H](C)CC)C(=O)N[C@@H](CCC(=O)O)C(=O)N[C@@H](Cc1ccc(O)cc1)C(=O)N[C@@H](CC(C)C)C(=O)N[C@@H](CC(C)C)C(=O)N[C@@H](CCC(=O)O)C(=O)NCC(=O)NCC(=O)N1CCC[C@H]1C(=O)N[C@@H](CO)C(=O)N[C@@H](CO)C(=O)NCC(=O)N[C@@H](C)C(=O)N1CCC[C@H]1C(=O)N1CCC[C@H]1C(=O)N1CCC[C@H]1C(=O)N[C@@H](CO)C(N)=O [LY3437943, reference compound]
[1]; 10 nmol/kg subcutaneous QD
  24h food intake compared with the model group: significantly reduced
  cumulative food intake compared with the model group: significantly reduced
[1]; 1 then 10 nmol/kg subcutaneous QD
  cumulative food intake: 273.8 ± 15.0 g
[1]; subcutaneous QD, 1 nmol/kg adjusted to 10 nmol/kg from day 15
  body weight loss at the end of the experiment: 29.4%
Human GIPR; read-out: Activity against human GIPR (EC50 nM)
  EC50: 0.002 nM
Human GLP-1R
  EC50: 0.08 nM
Human GCGR
  EC50: 0.412 nM
[2]
  body weight of DIO mice compared with the test group given the vehicle: significant reduction in body weight
  body weight reduction at the experimental endpoint: 30.4%

## H[Aib]HGTFTSDYSI[αMeL]LEK([AEEA-AEEA-γGlu-C20 diacid])KAA[Iva]EFVEWLLAGGPSSGAPPPS-NH2 [Compound No. 0137]
[4]
  Activity against human GIPR (EC50 nM): 0.001 nM
[5]
  Activity against human GLP-1R (EC50 nM): 0.013 nM
Human glucagon receptor
  Activity against human GCGR (EC50 nM): 0.047 nM

## H[Aib]HGTFTSDLSI[αMeL]LEK([AEEA-AEEA-γGlu-C20 diacid])KAA[Iva]EFVEWLLAGGPSSGAPPPS-NH2 [Compound No. 0138]
[4]
  Activity against human GIPR (EC50 nM): 0.0006 nM
[5]
  Activity against human GLP-1R (EC50 nM): 0.019 nM
Human glucagon receptor
  Activity against human GCGR (EC50 nM): 0.055 nM
